According to US11312715B2, “Fused ring derivative as A2A receptor inhibitor” (CSTONE PHARMACEUTICALS (SUZHOU) CO., LTD., priority 2017, dated 2022):
Where a name gives a salt, the structure may show the parent alone. Read-outs that look alike come from different tables or passages of the source.

Experiments:
[1] = tested on: mouse colon cancer CT26 cells; assay: In vivo pharmacodynamic test, CT26 subcutaneous tumor model, alone or combined with CS1003; design: species or system BALB/C mice; settings: for tumor inhibition rate: day 20
Experimental: Experimental materials: BALB/C mice (female); mouse colon cancer CT26 cells (Typical Culture Preservation Commission cell bank, Chinese Academy of Sciences) were cultured in vitro in monolayer with RPMI-1640 medium containing 10% fetal bovine serum in a 37° C., 5% CO2 incubator. Trypsin-EDTA was used for routine digestion and passage. When the cells were in exponential growth phase and the saturation was 80%-90%, the cells were collected and counted.
Compound preparation: Embodiment 19 was weighted and added into the menstruum (10% PEG400+90% (10% Cremophor aqueous solution)) to prepare samples of 2.5 mg/mL, 5 mg/mL and 10 mg/mL respectively. 72 μL CS1003 (PD-1 antibody) solution (25 mg/mL) was taken and 1.728 mL Dulbecco's phosphate buffer (DPBS) was added to prepare a 1 mg/mL solution, then 16.2 mL DPBS was added to prepare a 0.1 mg/mL clear solution.
Experimental operation: the cells were resuspended in Dulbecco's phosphate buffer at a density of 3×10^6 cells/mL. 0.1 mL DPBS (containing 3×10^5 CT26 cells) was subcutaneously inoculated on the right back of each mouse. On the day of inoculation, the mice were randomly divided into groups with 9 mice each group according to the weight of the mice, then administration was started and continued for 20 days. During the whole experiment, the animals were weighed and the animal's health was monitored every day, in case of any special situation, the person in charge of the relevant project would be informed in time and the corresponding records would be made. Tumor diameter was measured twice a week with a vernier caliper. The calculation formula of the tumor volume was: V=0.5×a×b^2, wherein a and b represent the long and short diameters of the tumor respectively.
The antitumor effect of the compounds was evaluated by GI (%) or relative tumor proliferation rate T/C (%). Relative tumor proliferation rate T/C (%)=Vt/VC×100% (Vt: average tumor volume of treatment group; Vc: average tumor volume of negative control group). Vt and VC were the data on the same day. GI (%), tumor inhibition rate. GI (%)=1−Vt/VC×100%.
Statistical analysis was conducted using SPSS software based on the relative tumor volume and tumor weight at the end of the experiment. […] P<0.05 was considered as significant difference.

[2] = PK test of in vivo efficacy: plasma and tumor tissue drug concentration on day 20 of the CT26 study; design: species or system BALB/C mice; settings: mouse; for concentration at 1 h / concentration at 4 h / Kp at 4 h / Kp at 1 h: oral; for concentration at 1 h / Kp at 1 h: time point 1 h; for concentration at 1 h / concentration at 4 h: tumor tissue; for concentration at 4 h / Kp at 4 h: time point 4 h; for AUC(0-t) / Cmax / Tmax / half-life: plasma, po, day 20; for half-life: read-out: T½ (converted); for Kp at 4 h / Kp at 1 h: tumor tissue / plasma, read-out: T/P* Ratio (tumor tissue / plasma drug concentration)
Experimental: The experiment was conducted on the basis of experimental example 3, on the 20th day after administration, blood samples and tissues were collected from each group at different time points (0 h, 0.25 h, 0.5 h, 1 h, 2 h, 4 h, 8 h and 24 h) after administration.

[3] = BALB/C, 50 mg/kg, Group 7, 50 mpk twice a day alone
[4] = BALB/C, 100 mg/kg, Group 3, 100 mpk alone
[5] = BALB/C, 25 mg/kg, Group 4: 25 mg/kg once a day PO + CS1003 1 mg/kg
[6] = BALB/C, 50 mg/kg, Group 5: 50 mg/kg once a day PO + CS1003 1 mg/kg
[7] = BALB/C, 50 mg/kg, Group 7: 50 mg/kg twice a day PO alone
[8] = BALB/C, 50 mg/kg, Group 8: 50 mg/kg twice a day PO + CS1003 1 mg/kg
[9] = BALB/C, 100 mg/kg, Group 3: 100 mg/kg once a day PO alone
[10] = BALB/C, 100 mg/kg, Group 6: 100 mg/kg once a day PO + CS1003 1 mg/kg
[11] = BALB/c, 50 mpk, Group 5, 50 mpk once a day + CS1003
[12] = BALB/c, 100 mpk, Group 3, 100 mpk alone
[13] = BALB/c, 100 mpk, Group 6, 100 mpk + CS1003

concentration at 1 h [2, 3]: 3.69 µM
concentration at 4 h [2, 3]: 0.901 µM
concentration at 1 h [2, 4]: 17.5 µM
concentration at 4 h [2, 4]: 10.6 µM
AUC(0-t) [2, 5]: 23.5 µM·h
Cmax [2, 5]: 32.2 µM
Tmax [2, 5]: 30 min
half-life [2, 5]: 65.4 min
AUC(0-t) [2, 6]: 70.6 µM·h
Cmax [2, 6]: 57.2 µM
Tmax [2, 6]: 15 min
half-life [2, 6]: 63 min
AUC(0-t) [2, 7]: 42 µM·h
Cmax [2, 7]: 30.1 µM
Tmax [2, 7]: 30 min
AUC(0-t) [2, 8]: 77.9 µM·h
Cmax [2, 8]: 47.1 µM
Tmax [2, 8]: 30 min
half-life [2, 8]: 95.4 min
AUC(0-t) [2, 9]: 145 µM·h
Cmax [2, 9]: 114 µM
Tmax [2, 9]: 15 min
half-life [2, 9]: 48.6 min
AUC(0-t) [2, 10]: 125 µM·h
Cmax [2, 10]: 132 µM
Tmax [2, 10]: 15 min
half-life [2, 10]: 39.3 min
Kp at 4 h [2, 3]: 9.8
Kp at 4 h ([2]; BALB/c, 25 mpk, Group 4, 25 mpk + CS1003): 0.9
Kp at 1 h [2, 11]: 0.4
Kp at 4 h [2, 11]: 1.8
Kp at 1 h ([2]; BALB/c, 50 mpk, Group 7, 50 mpk twice a day alone): 0.7
Kp at 4 h ([2]; BALB/c, 50 mpk, Group 8, 50 mpk twice a day + CS1003): 36
Kp at 1 h [2, 12]: 0.6
Kp at 4 h [2, 12]: 0.9
Kp at 1 h [2, 13]: 0.5
Kp at 4 h [2, 13]: 4.2
SMILES: Nc1nc(-c2ccc(F)cc2)c(-c2ccc3ncnn3c2)c2nccnc12 [Embodiment 6 hydrochloride]
tumor inhibition rate ([1]; 25 mg/kg once a day combined with 1 mg/kg CS1003, p<0.001): 63.16%
tumor volume ([1]; 25 mg/kg once a day intragastric combined with 1 mg/kg CS1003, end of experiment (day 20)): 312.06+80.17 mm^3
tumor inhibition rate ([1]; 50 mg/kg once a day combined with 1 mg/kg CS1003, p<0.001): 70.90%
tumor volume ([1]; 50 mg/kg once a day intragastric combined with 1 mg/kg CS1003, end of experiment (day 20)): 246.48+62.57 mm^3
tumor inhibition rate ([1]; 50 mg/kg twice a day in combination with CS1003, P<0.001): 83.22%
average tumor volume ([1]; 50 mg/kg twice a day intragastric in combination with CS1003, end of experiment (day 20)): 142.17+40.30 mm^3
tumor inhibition rate ([1]; 100 mg/kg once a day combined with 1 mg/kg CS1003, p<0.001): 72.48%
tumor volume ([1]; 100 mg/kg once a day intragastric combined with 1 mg/kg CS1003, end of experiment (day 20)): 233.10+59.55 mm^3
